Experiment [1] has as its system cancer cachexia mouse model. Put plainly: Cancer cachexia mouse model (CT26): grip test, Rota-rod test, cancer size, body weight, feed intake, fat and muscle weight. It counts as in vivo. Particulars: cancer cachexia mice; for body weight / cancer size / muscle mass / subcutaneous fat weight / total fat weight / visceral fat weight / daily feed intake: oral 10 mg/kg daily; for muscle mass / subcutaneous fat weight / total fat weight / visceral fat weight: 20th day. The procedure:
Cultured 1×10^6 cells were subcutaneously injected into the right side of the abdomen of 10-week-old mice. The size of the cancer grown in the right abdomen, body weight, and feed intake were measured once every time after cell injection, and 10 mg/kg of a triazole compound was orally administered daily from the 9th day. On the 18th day of cancer cell injection, each of the grip test and Rota-rod test for evaluating the muscle function was performed for 1 day. On the 20th day, subcutaneous fat, visceral fat and muscle (femur, calf) of the mouse were separated and weighed.
For the evaluation of muscle function, the grip test was performed by holding the mouse by having the mouse hold the metal grid attached to the grip strength meter, holding the tail of the mouse, and pulling it from behind horizontally. The force applied to the metal grid immediately before losing the grip was recorded in the measuring instrument as the maximum tension in g, and the entire process was performed 9 times per subject to record the average value. In the Rota-rod test (Ugo Basile, Comerio, VA, Italy), Rota-rod exercise was performed at least three times at a rotational speed of 4 rpm by using a machine equipped with a rod with the diameter of 3 cm appropriately processed to provide grip to measure the endurance time of the tested animals in seconds and record the average value. Each Rota-rod behavior test was not to exceed 5 minutes per time.

In experiment [2] the target is T1, ghrelin receptor (Homo sapiens, UniProt Q92847). Put plainly: Intracellular calcium influx in HEK293 cells overexpressing a ghrelin receptor. It counts as cell-based. Further details: host or cells: HEK293 (ATCC). Particulars: read-out: EC50, concentration capable of inducing 50% intracellular calcium influx. How it is done: Human embryonic kidney 293 (HEK293) cells were purchased from ATCC and cultured in a DMEM medium comprising 10% FBS at 37° C. and in 5% CO2.
After treating the cells with 100 ul of a wash buffer, fluorescently labeled intracellular calcium was imaged at an excitation wavelength of 485 nm and an emission wavelength of 520 nm for 1 minute at a shutter interval of 10 seconds under a laser scanning confocal microscope equipped with a temperature and humidity control equipment. […] Intracellular calcium fluorescence intensity by treatment with compounds was quantified by calculating same based on the fluorescence intensity when not treated with compounds.
Target sequence in this assay (Q92847 whole entry): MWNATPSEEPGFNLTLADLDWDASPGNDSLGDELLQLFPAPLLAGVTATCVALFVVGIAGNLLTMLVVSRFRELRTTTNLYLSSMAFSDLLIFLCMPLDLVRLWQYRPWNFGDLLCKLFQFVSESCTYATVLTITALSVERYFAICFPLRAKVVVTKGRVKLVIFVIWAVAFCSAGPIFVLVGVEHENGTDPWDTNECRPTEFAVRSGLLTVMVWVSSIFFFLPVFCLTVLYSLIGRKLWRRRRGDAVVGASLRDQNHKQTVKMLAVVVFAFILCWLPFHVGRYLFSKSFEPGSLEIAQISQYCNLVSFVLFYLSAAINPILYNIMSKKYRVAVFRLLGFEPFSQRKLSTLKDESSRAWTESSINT

The test system of experiment [3] is postoperative ileus (POI) mouse model. Briefly: Delayed gastric emptying in postoperative ileus (POI) mouse model. Conditions: POI mice, oral 10, 20, 30 mg/kg 20 hours after POI surgery. It counts as in vivo. The procedure: (§1) Mice aged 6-8 weeks were fasted for one day and then anesthetized with a mixture of ketamine and xylazine. The abdomen and peritoneum were then incised, and the small intestine was exposed on a sterile gauze pad. Manipulation was performed from the duodenum to the cecum for 5 minutes by using a sterile cotton swab. After surgery, the abdomen was sutured and the mice were allowed to recover for 4 hours in a cage maintained at 32 degrees.
Triazole compounds (10 mg/kg, 20 mg/kg and 30 mg/kg) were orally administered 20 hours after POI surgery. […] After 30 minutes, the stomach of the mouse was removed and put into a 0.1N NaOH 2 ml solution to homogenize same. 3 ml of 0.1N NaOH solution was added and centrifuged at 3000 rpm at 4 degrees for 10 minutes. After adding […] of 20% trichloroacetic acid to the supernatant, the mixture was centrifuged at 3000 rpm at 4 degrees for 10 minutes. […] The percentage of the gastric emptying delay was calculated by (1−(absorbance of test sample)/(baseline control absorbance)×100.

Experiment [4] shares this test system. Briefly: Colon transit time of feces in postoperative ileus (POI) mouse model. Conditions: POI mice; for colon transit time of feces: oral 30 mg/kg 4 hours after POI surgery; for colon transit time of feces / feed intake: vs PBS; for body weight / feed intake: 24 hours. Type of experiment: in vivo. How it is done: as §1
To evaluate the colon transit time of feces, 200 ul of trypan blue dye was injected into the proximal colon before suturing after POI surgery. A triazole compound (30 mg/kg) was orally administered 4 hours after POI surgery. The mouse was transferred to a metabolic cage, and the weighed feed was administered thereinto, and the time at which the first feces stained with trypan blue appeared was measured for 24 hours. At the 24th hour, the number and weight of feces were measured, and the weight of the consumed feed and the mouse's body weight were measured.

For experiment [5], the target named is T1, ghrelin receptor. Put plainly: G protein coupled receptor agonist analysis (Eurofins Discovery), ghrelin receptor. It counts as cell-based. Further details: Eurofins Discovery; dose or concentration left out as unconfirmed. Particulars: compound alone (agonist effect). How it is done: (§2) The efficacy of triazole compounds […] as agonists and antagonists for a total of 170 types of G protein-coupled receptors was performed by Eurofins Discovery.
(§3) The family of G protein-coupled receptors comprises many types of receptors comprising a ghrelin receptor. It was checked whether or not the triazole compounds have efficacy as agonists or antagonists of different types of G protein-coupled receptors.
Target sequence in this assay (Q92847 whole entry, species assumed): as the sequence (Q92847 whole entry) above

For experiment [6], the system named is 170 G protein-coupled receptors. Briefly: G protein coupled receptor agonist and antagonist analysis, panel of 170 receptors (Eurofins Discovery). It counts as cell-based. Details: dose or concentration left out as unconfirmed. Conditions: alone (agonist effect) or together with ligands for each receptor (antagonist effect). The procedure:
as §2, §3

For the compound `CCCCCCCCCCn1cc(C(N)(CO)CO)nn1` [KARI101, 2-amino-2-(1-decyl-1H-1,2,3-triazol-4-yl) propane-1,3-diol], in experiment [1], the body weight result is given as “did not affect” and the cancer size result is “did not affect”. In addition, in experiment [1] (vs Vehicle), the muscle mass entry is “increased”, the subcutaneous fat weight entry was “increased”, the total fat weight entry was “increased” and the visceral fat weight result was “increased”. For the same compound, the daily feed intake result in experiment [1] (vs Vehicle) is listed as “increased”. For the same compound, the “muscle strength function (Grip test and Rota-rod test)” value in experiment [1] (oral 10 mg/kg once daily from 9th day, tested 18th day, vs Vehicle) is reported as “significantly improved”. Further, the EC50 in experiment [2] worked out at 189 nM. Besides, the delayed gastric emptying result in experiment [3] is on record as “significant improvement”. In addition, the “colon transit time of feces” value in experiment [4] is given as “significantly reduced”. Besides, in experiment [4] (oral 30 mg/kg), the body weight entry is “no change” and the feed intake result is “increased”.
Consider `CCCCCCCCCCCCn1cc(C(N)(CO)CO)nn1` [KARI001, 2-amino-2-(1-dodecyl-1H-1,2,3-triazol-4-yl)propane-1,3-diol], for which the EC50 in experiment [2] was determined as 128 nM.
Take `CCCCCCCCCn1cc(C(N)(CO)CO)nn1` [KARI201, 2-amino-2-(1-nonyl-1H-1,2,3-triazol-4-yl)propane-1,3-diol]: in experiment [5], the “efficacy as a ghrelin receptor agonist” value worked out at 83.7%. Further, in experiment [1], the body weight entry was “did not affect” and the cancer size result was “did not affect”. Also, in experiment [1] (vs Vehicle), the muscle mass entry is listed as “increased”, the subcutaneous fat weight result is “increased”, the total fat weight entry is given as “increased” and the visceral fat weight result is “increased”. The daily feed intake result in experiment [1] (vs Vehicle) is recorded as “increased”. For the same compound, in experiment [3], the delayed gastric emptying result is given as “significant improvement”. In addition, in experiment [4], the “colon transit time of feces” value is on record as “significantly reduced”. In experiment [4] (oral 30 mg/kg), the body weight entry is recorded as “no change” and the feed intake result is listed as “increased”. Also, the “number and weight of feces” value in experiment [4] (oral 30 mg/kg, at the 24th hour) is “increased”. Besides, the “specificity among 170 G protein-coupled receptors (agonist or antagonist efficacy)” value in experiment [6] was “ghrelin receptor-specific agonist”.

(Values after patent publication US12570617B2 (Kyungpook National University Industry-Academic Cooperation …, priority 2020, dated 2026).)
